Patent publication US7041677B2, “Use of monochloroflosequinan in the treatment of sexual dysfunction” (R.T. Alamo Ventures I, LLC, priority 2002, dated 2006)

Target: T1, PDE1 (Bos taurus, UniProt P14100)
T1 construct: PDE1 partially purified from bovine heart was used; from tissue; host or cells: bovine heart
Assay: PDE1 enzyme inhibition assay
Type: biochemical, bovine
Conditions: 1% DMSO vehicle
Description: In this example, a racemic mixture of monochloroflosequinan and the sulfone derivative of monochloroflosequinan were independently subjected to biochemical enzyme assays to determine their respective percent inhibition of a variety of phosphodiesterases (PDE1-PDE6). The methods used have been adapted from those described in the scientific literature, see Hidaka and Asano “Human blood platelet 3′:5′ cyclic nucleotide phosphodiesterase. Isolation of low-Km and high Km phosphodiesterase.” Biochem. Biophys. Acta 429:485 (1976); Nicholoson et al. “Differential modulation of tissue function and therapeutic potential of selective inhibitors of cyclic nucleotide phosphodiesterase isoenzymes” Trends Pharmacol. Sci. 12:19 (1991); Cortijo et al. “Investigation into the role of phosphodiesterase IV in bronchorelaxation, including studies with hyman bronchus.” Br. J. Pharmacol. 108:562 (1993); Baehr et al. “Isolation and characterization of cGMP phosphodiesterase from bovine rod outer segments.” J. Biol. Chem. 254:11669 (1979) and Gillespie and Beavo “Inhibition and stimulation of photoreceptor phosphodiesterase by dipyridamole and M&B 22,948” Molecular Pharm. 36:773 (1989). A brief summary of the conditions for each enzyme assay is provided below: • PDE1: PDE1 partially purified from bovine heart was used. The compounds were independently incubated with 13 μg PDE1 enzyme, 1.01 μM [^3H]cAMP+cAMP and CaCl2/calmodulin in Tris buffer pH 7.5 for 20 minutes at either 25° C. or 30° C. The reaction was terminated by boiling for 2 minutes, and the resulting AMP was converted to adenosine by addition of 10 mg/ml snake venom nucleotidase and further incubation at 30° C. for 10 minutes. Unhydrolyzed cAMP was bound to AGI-X2 resin, and the remaining [^3H]adenosine in the aqueous phase was quantitated by scintillation counting. • PDE2: PDE2 partially purified from human platelets was used. The compounds were independently incubated with 23 μg PDE2 enzyme, 25.1 μM [^3H]cAMP+cAMP in Tris buffer pH 7.5 for 20 minutes at either 25° C. or 30° C. The reaction was terminated by boiling for 2 minutes, and the resulting AMP was converted to adenosine by addition of 10 mg/ml snake venom nucleotidase and further incubation at 30° C. for 10 minutes. Unhydrolyzed cAMP was bound to AGI-X2 resin, and the remaining [^3H]adenosine in the aqueous phase was quantitated by scintillation counting. • PDE3: PDE3 partially purified from human platelets was used. The compounds were independently incubated with 13 ug PDE3 enzyme and 1.01 μM [^3H]cAMP+cAMP in Tris buffer pH 7.5 for 20 minutes at either 25° C. or 30° C. The reaction was terminated by boiling for 2 minutes, and the resulting AMP was converted to adenosine by addition of 10 mg/ml snake venom nucleotidase and further incubation at 30° C. for 10 minutes. Unhydrolyzed cAMP was bound to AGI-X2 resin, and the remaining [^3H]adenosine in the aqueous phase was quantitated by scintillation counting. • PDE4: PDE4 partially purified from human U-937 pronocytic cells was used. The compounds were independently incubated with 20 μg PDE4 enzyme and 1.01 μM [^3H]cAMP+cAMP in Tris buffer pH 7.5 for 20 minutes at either 25° C. or 30° C. […] Unhydrolyzed cAMP was bound to AGI-X2 resin, and the remaining [^3H]adenosine in the aqueous phase was quantitated by scintillation counting. • PDE5: PDE5 partially purified from human platelets was used. […]

inhibition of PDE1 (200 μM, 25° C.)	Structure (SMILES)	other results
greater than 50%	Cn1cc([S@@+]([O-])CCl)c(=O)c2ccc(F)cc21 (single isomer, unassigned) [(−)-enantiomer of monochloroflosequinan]	–
greater than 50%	Cn1cc([S@+]([O-])CCl)c(=O)c2ccc(F)cc21 (single isomer, unassigned) [(+)-enantiomer of monochloroflosequinan]	–
–	Cn1cc([S+]([O-])C(Cl)Cl)c(=O)c2ccc(F)cc21 (stereo not shown) [dichloroflosequinan, 3-dichloromethylsulfinyl-7-fluoro-1-methyl-4-quinolone]	inhibition of PDE1 (varying concentrations, 25° C.): greater than 50%
–	Cn1cc([S+]([O-])CCl)c(=O)c2ccc(F)cc21 (racemic) [monochloroflosequinan, 3-chloromethylsulfinyl-7-fluoro-1-methyl-4-quinolone]	inhibition of PDE1 (100 uM, 30° C.): Significant inhibition
